Reference: ChEMBL document CHEMBL1201862, “PubChem BioAssay data set” (2004)
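Exposure lasted 48 hours, with cells grown in 96-well plates and compounds tested at five concentrations. GI50: concentration for 50% inhibition of growth.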 Activity calls are given as the source filed them. No stated cut-off is given here; in the data, active = GI50 up to about 1.1 µM and inactive = higher.

Assays:
Assay in all cases: NCI tumour cell line growth inhibition, 48 h
[1] = test system: A498
[2] = test system: CAKI-1
[3] = test system: CCRF-CEM
[4] = test system: COLO 205
[5] = test system: HOP-62
[6] = test system: HT-29
[7] = test system: Hs-578T
[8] = test system: K562
[9] = test system: LOX IMVI
[10] = test system: NCI-H23
[11] = test system: OVCAR-4
[12] = test system: RPMI-8226
[13] = test system: SF-295
[14] = test system: SF-539
[15] = test system: SK-MEL-5
[16] = test system: SK-OV-3
[17] = test system: SN12C
[18] = test system: TK-10

Row | Compound | GI50 [1] | GI50 [2] | GI50 [3] | GI50 [4] | GI50 [5] | GI50 [6] | GI50 [7] | GI50 [8] | GI50 [9] | GI50 [10] | GI50 [11] | GI50 [12] | GI50 [13] | GI50 [14] | GI50 [15] | GI50 [16] | GI50 [17] | GI50 [18]
1 | NC(=O)c1nnsc1NN=O | > 100 µM (inactive) | > 100 µM (inactive) | > 100 µM (inactive) | > 100 µM (inactive) | > 100 µM (inactive) | > 100 µM (inactive) | > 100 µM (inactive) | > 100 µM (inactive) | > 100 µM (inactive) | > 100 µM (inactive) | > 100 µM (inactive) | > 100 µM (inactive) | > 100 µM (inactive) | > 100 µM (inactive) | > 100 µM (inactive) | > 100 µM (inactive) | > 100 µM (inactive) | 
2 | CCOC(=O)/C=C/C(Br)=C(Br)/C=C/C(=O)OCC | 26.9 µM (inactive) | 3.84 µM (inactive) | 0.796 µM (active) | 16.4 µM (inactive) | 17.9 µM (inactive) | 14.8 µM (inactive) | 29.2 µM (inactive) | 2.65 µM (inactive) | 2.52 µM (inactive) | 14.5 µM (inactive) | 17.7 µM (inactive) | 2.59 µM (inactive) | 14.8 µM (inactive) |  | 12.9 µM (inactive) | 20.3 µM (inactive) | 7.85 µM (inactive) | 14.2 µM (inactive)
3 | Cc1cc(C)nc(NS(=O)(=O)c2ccc(NC(=O)c3cc([N+](=O)[O-])cc([N+](=O)[O-])c3)cc2)n1 | > 100 µM (inactive) | > 100 µM (inactive) | 59.7 µM (inactive) | 18.3 µM (inactive) | > 100 µM (inactive) | 31.4 µM (inactive) | > 100 µM (inactive) | 60.7 µM (inactive) | 26.8 µM (inactive) | > 100 µM (inactive) | 22.9 µM (inactive) | 57.5 µM (inactive) |  | 37 µM (inactive) | 95.3 µM (inactive) | > 100 µM (inactive) | 70.6 µM (inactive) | > 100 µM (inactive)
4 | O=C1CC(c2ccc([N+](=O)[O-])cc2)C2(C(=O)NC(=S)NC2=O)C(c2ccc([N+](=O)[O-])cc2)C1 (centres undefined) | 32.4 µM (inactive) |  | 27.7 µM (inactive) | 33.5 µM (inactive) | 23.8 µM (inactive) | 59.8 µM (inactive) | 25.8 µM (inactive) | 62.5 µM (inactive) | 19 µM (inactive) | 22.1 µM (inactive) | 45.7 µM (inactive) | 42.9 µM (inactive) | 25.5 µM (inactive) | 33.7 µM (inactive) | 31.3 µM (inactive) | 35.9 µM (inactive) | 21.5 µM (inactive) | 16.3 µM (inactive)
5 | COc1ccc(S(=O)(=O)Nc2ccc(-c3csc(N4C(=O)/C(=C/c5ccccc5)N=C4c4ccccc4)n3)cc2)cc1Cl | 11.3 µM (inactive) | 62.8 µM (inactive) | 43.5 µM (inactive) | 34.5 µM (inactive) | 36.4 µM (inactive) | > 100 µM (inactive) | 37.5 µM (inactive) | 34.3 µM (inactive) | 32.5 µM (inactive) | 23.2 µM (inactive) | 27.2 µM (inactive) |  | 41.7 µM (inactive) | 41.6 µM (inactive) | 28.4 µM (inactive) | 79.3 µM (inactive) | 65.6 µM (inactive) | 47.4 µM (inactive)
6 | CCOC(=O)C1=c2[nH]c3cccc4cccc(c43)n2C(=O)CC1c1ccccc1 (centres undefined) | > 100 µM (inactive) | > 100 µM (inactive) | > 100 µM (inactive) | > 100 µM (inactive) | > 100 µM (inactive) | > 100 µM (inactive) | > 100 µM (inactive) | > 100 µM (inactive) | > 100 µM (inactive) | > 100 µM (inactive) | > 100 µM (inactive) | > 100 µM (inactive) | > 100 µM (inactive) |  | > 100 µM (inactive) | > 100 µM (inactive) | > 100 µM (inactive) | > 100 µM (inactive)
7 | COc1c(O)cc2c(c1O)C(=O)C(Cc1ccc(O)cc1)CO2 (centres undefined) | > 100 µM (inactive) | 78.9 µM (inactive) |  | > 100 µM (inactive) | 94.6 µM (inactive) | > 100 µM (inactive) | > 100 µM (inactive) | 22.8 µM (inactive) | > 100 µM (inactive) | > 100 µM (inactive) | 40.3 µM (inactive) | 25.7 µM (inactive) | 65.8 µM (inactive) | 56.4 µM (inactive) | 84.9 µM (inactive) | 68.9 µM (inactive) | > 100 µM (inactive) | > 100 µM (inactive)
8 | CNC(=O)c1nn[nH]c1O | > 100 µM (inactive) | > 100 µM (inactive) | > 100 µM (inactive) | > 100 µM (inactive) | > 100 µM (inactive) | > 100 µM (inactive) | 98.4 µM (inactive) | > 100 µM (inactive) | > 100 µM (inactive) | > 100 µM (inactive) |  | > 100 µM (inactive) | > 100 µM (inactive) |  | > 100 µM (inactive) | > 100 µM (inactive) | > 100 µM (inactive) | 
